Read-outs that look alike come from different tables or passages of the source.
What was measured:
[1] = female, C57BL/6, mouse, in vivo, 7 days
in vitro [2] = details: mouse, microsomes
CSF1R = CSF1R (Homo sapiens (Human), UniProt P07333); assay type: biochemical; details: Kinase Profiler
[3] = Human plasma-protein binding
[4] = Human hepatocyte stability; assay type: in vitro ADME
[5] = Mouse hepatocyte stability; assay type: in vitro ADME; details: hepatocytes
[6] = tested on: MC38 colorectal carcinoma tumours; test: MC38 syngeneic mouse tumour model (Example 8.1)
[7] = tested on: HDAC4 phosphorylation in PANC-1 cells; test: HDAC4 phosphorylation (Meso Scale Discovery assay); details: 10 ng/mL rHuTNF
[8] = tested on: SIK3 WT and KO MC38 clones; test: TNF-mediated killing of SIK3 wildtype vs SIK3 knockout MC38 clones (CTG); assay type: cell-based, mouse; details: sub-optimal TNF (<10 ng/ml), 72 h
Procedure: The assay was performed as follows: MC38 SIK3 KO clones were generated using CRISPR. Cells were transfected with RNP complexes (Cas9+gRNA) containing gRNAS targeting SIK3 or non-targeting sequences (control). […] Subsequently, single cell clones were generated by limiting dilution. CRISPR-derived mutations in single clones were detected by next-generation sequencing and analysed using CRISPResso. Knockout and wildtype clones were selected and plated overnight. […] Cells treated with different concentrations of inhibitor but without TNF served as no TNF control. Cell viability was measured by CTG assay.

[9] = tested on: NFKB activity in MC38 cells; test: TNF-induced NFKB activity (NFKB-dependent luciferase reporter); details: 10 ng/ml rMuTNF
[10] = Murine plasma protein binding
[11] = in vivo, po, 30 mg/kg
[12] = MDCK wild type permeability/efflux; details: dog
[13] = tested on: MC38 murine tumour cell line; test: TNF-sensitised cell viability assay (CellTiter-Glo); details: Mus musculus
in vivo = details: male, CD1, mouse, po, 30 mg/kg
[14] = Screening PK in mice after 30 mg/kg po; details: for concentration at 6 h: mice, 30 mg/kg po
SIK2 = SIK2 (Homo sapiens (Human), UniProt Q9H0K1); test: SIK2 kinase inhibition (IC50); details: read-out: Kinase: IC50 (nM) SIK2
in vitro [15] = details: human, microsomes
SIK3 [16] = molecular target: T1, SIK3 (Homo sapiens (Human), UniProt Q9Y2K2); test: SIK3 kinase inhibition (IC50)
[17] = tested on: NFKB activity in PANC-1 cells; test: TNF-induced NFKB activity (NFKB-dependent luciferase reporter); details: 10 ng/ml rHuTNF
HCK = HCK (Homo sapiens (Human), UniProt P08631); assay type: biochemical; details: Kinase Profiler
HCT116 cells = test: TNF-sensitised cell viability assay (CellTiter-Glo); details: Homo sapiens, HCT-116, read-out: HCT116 IC50 (at 10 ng/ml rHuTNF)
SIK3 [18] = molecular target: T1, SIK3
[19] = Metabolite profile in hepatocytes / in vivo
Text: Metabolites are identified using high-resolution mass spectrometry.

MDR1 (P-gp) = MDR1 (P-gp) (Homo sapiens (Human), UniProt P08183); test: MDR1-MDCK effective efflux assay; details: dog; for efflux ratio: Table 5.1B
[20] = molecular target: MDR1 pump (P-gp), MDCK-MDR1 cells (Homo sapiens (Human), UniProt P08183); test: MDR1-MDCK effective efflux assay; details: Table 5.1B
[21] = tested on: M579-A2-luc melanoma tumour cells; test: Luciferase-based TNF killing assay; assay type: cell-based, human; details: TNF 10 ng/mL; inhibitor between about 10 and 100 nM
Procedure: PANC1-luc is an HLA-A2.1+ luciferase-expressing pancreatic adenocarcinoma (PDAC) tumour cell line, and M579-A2-luc is an HLA-A2.1+ luciferase-expressing melanoma tumour cell line.
After lysis, luciferase assay buffer is added and immediately the luciferase intensity was measured by using the TECAN-Spark microplate reader.

[22] = mouse, in vivo, po, 30 mg/kg
[23] = tested on: human breast skin explants; test: Human skin explant eumelanisation
[24] = total plasma concentration at 30 mg/kg p.o dose, fold of C7 (C7 = 1×)

CSF1R, sequence (P07333 20-972 limits assumed): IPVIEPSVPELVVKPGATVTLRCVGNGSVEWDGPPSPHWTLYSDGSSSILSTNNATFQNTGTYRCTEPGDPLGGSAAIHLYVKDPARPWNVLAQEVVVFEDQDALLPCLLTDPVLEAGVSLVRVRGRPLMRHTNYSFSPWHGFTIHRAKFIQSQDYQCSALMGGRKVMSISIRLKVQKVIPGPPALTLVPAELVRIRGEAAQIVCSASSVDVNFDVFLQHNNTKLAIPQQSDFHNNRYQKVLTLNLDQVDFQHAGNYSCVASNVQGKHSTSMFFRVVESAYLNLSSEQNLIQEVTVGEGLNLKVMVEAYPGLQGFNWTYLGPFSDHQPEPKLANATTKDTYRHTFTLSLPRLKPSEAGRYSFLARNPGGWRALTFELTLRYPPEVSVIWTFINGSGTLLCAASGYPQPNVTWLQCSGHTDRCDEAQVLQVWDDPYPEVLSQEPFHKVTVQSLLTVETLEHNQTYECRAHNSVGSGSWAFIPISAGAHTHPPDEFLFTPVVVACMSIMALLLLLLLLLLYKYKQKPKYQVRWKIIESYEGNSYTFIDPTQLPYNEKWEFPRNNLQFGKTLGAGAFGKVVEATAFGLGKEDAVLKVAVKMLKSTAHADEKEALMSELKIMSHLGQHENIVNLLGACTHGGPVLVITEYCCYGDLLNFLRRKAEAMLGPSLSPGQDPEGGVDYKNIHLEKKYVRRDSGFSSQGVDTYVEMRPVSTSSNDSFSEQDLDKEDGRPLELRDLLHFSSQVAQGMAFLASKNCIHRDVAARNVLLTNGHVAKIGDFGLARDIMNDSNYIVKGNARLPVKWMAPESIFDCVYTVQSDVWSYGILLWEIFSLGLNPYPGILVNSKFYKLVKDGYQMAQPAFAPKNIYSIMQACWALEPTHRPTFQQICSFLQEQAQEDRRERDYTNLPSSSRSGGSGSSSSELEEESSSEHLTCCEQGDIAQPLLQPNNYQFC

With `Cc1nc(Nc2ncc(C(=O)Nc3c(CF)csc3Cl)s2)cc(N2CCN(C)C(C)C2)n1` (racemic) [Compound E10, N-(2-chloro-4-(fluoromethyl)thiophen-3-yl)-2-((6-(3,4-dimethylpiperazin-1-yl)-2-methylpyrimidin-4-yl)amino)thiazole-5-carboxamide] as the compound, how does the “DLT@BID dosing” value [1] read?
The value was “n.d. @30 mg/kg”.

And the “DLT@QD dosing” value [1]?
Its value is “n.d. @30 mg/kg”.

What about the “HRD in vivo @BID” value [1] of the same compound?
The value was 30 mg/kg.

What about the “HRD in vivo @QD” value [1] of the same compound?
Its value is 30 mg/kg.

And the half-life (in vitro [2])?
Its half-life is 14 min.

What about the microsomal CLint (in vitro [2]) of the same compound?
Its microsomal CLint is 99 µL/min/mg.

What about the CSF1R residual activity (CSF1R) of the same compound?
The CSF1R residual activity was “less than 1%”.

And the “Human plasma-protein binding, Percentage unbound (%)” value ([3]; Table 5.1A)?
Its value is 1%.

What about the recovery at 4 h ([3]; human, plasma) of the same compound?
The recovery at 4 h was 74%.

And the “Human hepatocyte stability, Half-life” value [4]?
The value was 21 min.

And the half-life ([4]; human, hepatocytes, read-out: Human hepatocyte stability, Half-life)?
Its half-life is 21 to 30 min.

What about the microsomal CLint ([4]; human, hepatocytes, read-out: Human hepatocyte stability, Intrinsic clearance) of the same compound?
Its microsomal CLint is 67 µL/min/mg.

And the half-life [5]?
Its half-life is 78 min.

What about the microsomal CLint ([5]; read-out: Mouse hepatocyte stability, Intrinsic clearance) of the same compound?
Its microsomal CLint is 18 µL/min/mg.

And the TGI ([6]; MC38, dose not repeated)?
The TGI was 46%.

What about the “Body weight increase (%)” value ([6]; MC38, 30 mg/Kg, BID po) of the same compound?
Its value is 19.8%.

And the Non-treatment related death ([6]; MC38, 30 mg/Kg, BID po)?
Its Non-treatment related death is 0/16.

And the “Tumour growth inhibition (%)” value ([6]; MC38, 30 mg/Kg, BID po)?
The value was 46%.

What about the “Inhibition of HDAC4 phosphorylation” value ([7]; 3 h) of the same compound?
The value was “++”.

What about the “TNF-mediated killing in SIK3 WT vs KO MC38 clones” value [8] of the same compound?
Its value is “induced TNF-mediated killing only in SIK3 WT clones”.

And the “Inhibition of NFKB activity (MC38)” value [9]?
Its value is “++”.

And the “Murine plasma protein binding, Percentage unbound (%)” value ([10]; Table 5.1A)?
The value was 1%.

And the recovery at 4 h ([10]; mouse, plasma)?
The recovery at 4 h was 101%.

And the “% AUCextrap, Free” value ([11]; male, CD1, mouse)?
The value was 4.05%.

And the “% AUCextrap, Total” value ([11]; male, CD1, mouse)?
Its value is 4.05%.

What about the “AUCinf (nM*h), Free” value ([11]; male, CD1, mouse) of the same compound?
Its value is 128.06 nM·h.

What about the “AUClast (nM*h), Free” value ([11]; male, CD1, mouse) of the same compound?
Its value is 122.87 nM·h.

What about the “Rsq, Free” value ([11]; mouse) of the same compound?
Its value is 0.81.

And the “Rsq, Total” value ([11]; mouse)?
The value was 0.81.

And the Papp [12]?
The Papp was 10 ×10⁻⁶ cm/s.

What about the efflux ratio [12] of the same compound?
Its efflux ratio is 1.6.

What about the IC50 ([13]; MC-38, read-out: MC38 IC50 (at 100 ng/mL rMuTNF)) of the same compound?
Its IC50 is < 0.1 µM.

And the EC50 ([13]; MC-38, read-out: mean EC50 of sensitising MC38 tumour cells to TNF-mediated killing)?
Its EC50 is < 0.1 µM.

What about the AUC(0-inf) (in vivo) of the same compound?
The AUC(0-inf) was 6.17 µM·h.

What about the AUC(0-t) (in vivo) of the same compound?
Its AUC(0-t) is 5.92 µM·h.

What about the Cmax (in vivo) of the same compound?
Its Cmax is 2040 ng/mL.

And the MRT last (in vivo)?
Its MRT last is 246 min.

What about the Tmax (in vivo) of the same compound?
The Tmax was 15 min.

What about the half-life (in vivo) of the same compound?
The half-life was 261 min.

What about the Cmax at 2 h ([14]; mouse, plasma, po, 30 mg/kg) of the same compound?
The Cmax at 2 h was 374 ng/mL.

What about the concentration at 6 h ([14]; mouse, plasma, po, 30 mg/kg, Free plasma concentration after 6 h (nM)) of the same compound?
The concentration at 6 h was 3.3 nM.

What about the concentration at 6 h ([14]; mouse, plasma, po, 30 mg/kg, Plasma concentration after 6 h (nM)) of the same compound?
The concentration at 6 h was 157 nM.

And the “AUC0-last (nM*h), relative to C7” value [14, 24]?
The value was 2×.

And the “C max (ng/ml), relative to C7” value [14, 24]?
Its value is 1.7×.

And the “MRT0-last (h), relative to C7” value [14, 24]?
The value was 2.8×.

And the “t1/2 (h), relative to C7” value [14, 24]?
Its value is 14.5×.

What about the IC50 (SIK2) of the same compound?
Its IC50 is < 20 nM.

What about the half-life (in vitro [15]) of the same compound?
Its half-life is 12 min.

What about the microsomal CLint (in vitro [15]) of the same compound?
Its microsomal CLint is 120 µL/min/mg.

What about the IC50 (SIK3 [16]) of the same compound?
Its IC50 is 0.02 to 0.05 µM.

And the “Inhibition of NFKB activity (PANC-1)” value ([17]; PANC-1 reporter cells)?
The value was “++”.

And the HCK residual activity (HCK)?
Its HCK residual activity is “less than 1%”.

And the IC50 (HCT116 cells)?
The IC50 was < 0.1 µM.

What about the “SIK3 IC50 (nM), relative to C7” value (SIK3 [18]; fold of the value of compound C7 (C7 = 1×)) of the same compound?
The value was 0.7×.

What about the quinone-imine reactive metabolite [19] of the same compound?
The quinone-imine reactive metabolite was “not observed”.

And the Papp (MDR1 (P-gp); MDCK-MDR1)?
Its Papp is 4 ×10⁻⁶ cm/s.

What about the efflux ratio (MDR1 (P-gp); MDCK-MDR1, MDCK-MDR1 cells, Mean Efflux Ratio (MDR1)) of the same compound?
Its efflux ratio is 20 to 30.

What about the efflux ratio (MDR1 (P-gp); MDCK-MDR1, P-gP driven efflux ratio (MDR1/wt)) of the same compound?
Its efflux ratio is 19.

What about the “MDCK-MDR1 cells, Mean Efflux Ratio (MDR1)” value [20] of the same compound?
The value was 31.

With `CCOc1cccc(Cl)c1NC(=O)c1cnc(Nc2cc(N3CCN(CCO)CC3)nc(C)n2)s1` [Compound B8, N-(2-chloro-6-ethoxyphenyl)-2-((6-(4-(2-hydroxyethyl)piperazin-1-yl)-2-methylpyrimidin-4-yl)amino)thiazole-5-carboxamide] as the compound, how does the “cytotoxicity in the presence of TNF compared to inhibitor alone” value (shortened to “cytotoxicity … compared to inhibitor alone”) [21] read?
Its value is “fails to exhibit cytotoxicity”.

For `Cc1nc(Nc2ncc(C(=O)Nc3c(C)csc3Cl)s2)cc(N2CCN(C)CC2)n1` [Compound D9], which “Inhibition of HDAC4 phosphorylation” value ([7]; 3 h (Table 9C)) is on record?
The value was “+”.

What about the “Free concentration (nM) at 2 hours” value [22] of the same compound?
The value was 44 nM.

And the “Free concentration (nM) at 6 hours” value [22]?
Its value is 8 nM.

And the “Free concentration (nM) at 12 hours” value [22]?
Its value is 2.71 nM.

And the “Inhibition of NFKB activity” value ([17]; PANC-1 reporter cells (Table 9C))?
Its value is “+”.

What about the IC50 (SIK3 [18]; read-out: SIK3 IC50) of the same compound?
The IC50 was ~0.06 µM.

For `COc1c(F)cccc1NC(=O)c1cnc(Nc2cc(N3CCN(CCO)CC3)nc(C)n2)s1` [Compound B4, N-(3-fluoro-2-methoxyphenyl)-2-((6-(4-(2-hydroxyethyl)piperazin-1-yl)-2-methylpyrimidin-4-yl)amino)thiazole-5-carboxamide], which “cytotoxicity … compared to inhibitor alone” value [21] is on record?
Its value is “fails to exhibit cytotoxicity”.

For `Cc1nc(Nc2ncc(C(=O)Nc3c(Cl)cccc3Br)s2)cc(N2CCN(CCO)CC2)n1` [Compound B1, N-(2-bromo-6-chlorophenyl)-2-((6-(4-(2-hydroxyethyl)piperazin-1-yl)-2-methylpyrimidin-4-yl)amino)thiazole-5-carboxamide], which “cytotoxicity … compared to inhibitor alone” value [21] is on record?
Its value is “increased cytotoxicity”.

For `COc1ccc(N(C(=O)Nc2c(C)cccc2C)c2cc(Nc3ccc(N4CCN(C)CC4)cc3)ncn2)c(OC)c1` [HG 9-91-01], which “gross pigmentation of human skin explants, passive topical application” value ([23]; 8 days (1×/day)) is on record?
Its value is “no significant gross pigmentation”.

What about the “melanin content (Fontana-Masson staining), passive application” value ([23]; compared to control) of the same compound?
The value was “marginally increased melanin”.

What about the “gross pigmentation of human skin explants, mechanical application” value ([23]; rubbing via an applicator) of the same compound?
Its value is “induces significant gross pigmentation”.

From US20230348453A1, “HALOGENATED-HETEROARYL AND OTHER HETEROCYCLIC KINASE INHIBITORS, AND USES THEREOF” (iOmx Therapeutics AG, priority 2020, published 2023)
